ChEMBL document CHEMBL4004825 (J Med Chem, 2017)

Columns and labels:
[1] = Blood clearance in dog; format: ADME, Canis lupus familiaris; details: whole blood
[2] = Oral bioavailability in monkey; format: ADME, organism-based, Macaca mulatta; details: rhesus monkey, in vivo
[3] = Stability in human liver microsomes; format: ADME, microsome; details: read-out: Stability
[4] = Half life in rat plasma; format: ADME
[5] = biological target: T1, Tyrosine-protein kinase Blk (Homo sapiens, UniProt P51451); experiment: Inhibition of full length recombinant human His-tagged cytoplasmic BLK expressed in baculovirus expression system in presence of 1 mM ATP by KT236 probe based TR-FRET assay
T1 sequence (P51451 whole entry): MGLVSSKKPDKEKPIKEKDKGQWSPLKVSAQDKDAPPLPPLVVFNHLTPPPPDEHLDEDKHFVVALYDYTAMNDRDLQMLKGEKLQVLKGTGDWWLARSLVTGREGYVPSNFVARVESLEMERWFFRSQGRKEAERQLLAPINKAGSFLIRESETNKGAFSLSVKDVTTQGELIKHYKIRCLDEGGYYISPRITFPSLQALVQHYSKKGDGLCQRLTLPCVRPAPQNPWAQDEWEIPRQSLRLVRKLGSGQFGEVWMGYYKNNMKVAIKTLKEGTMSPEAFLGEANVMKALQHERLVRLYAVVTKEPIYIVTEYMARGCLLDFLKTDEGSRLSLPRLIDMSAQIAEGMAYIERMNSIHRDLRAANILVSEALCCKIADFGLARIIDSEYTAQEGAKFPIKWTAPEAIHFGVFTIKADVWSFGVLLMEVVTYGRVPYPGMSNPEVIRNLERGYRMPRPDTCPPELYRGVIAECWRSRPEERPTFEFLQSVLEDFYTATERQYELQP

[6] = Half-life in rat blood; format: ADME, tissue-based
[7] = biological target: T2, Dual specificity mitogen-activated protein kinase kinase 7 (Homo sapiens, UniProt O14733); experiment: Inhibition of human N-terminal GST-tagged full length MAP2K7 expressed in baculovirus infected Sf21 insect cells in presence of 1 mM ATP
T2 sequence (O14733 whole entry): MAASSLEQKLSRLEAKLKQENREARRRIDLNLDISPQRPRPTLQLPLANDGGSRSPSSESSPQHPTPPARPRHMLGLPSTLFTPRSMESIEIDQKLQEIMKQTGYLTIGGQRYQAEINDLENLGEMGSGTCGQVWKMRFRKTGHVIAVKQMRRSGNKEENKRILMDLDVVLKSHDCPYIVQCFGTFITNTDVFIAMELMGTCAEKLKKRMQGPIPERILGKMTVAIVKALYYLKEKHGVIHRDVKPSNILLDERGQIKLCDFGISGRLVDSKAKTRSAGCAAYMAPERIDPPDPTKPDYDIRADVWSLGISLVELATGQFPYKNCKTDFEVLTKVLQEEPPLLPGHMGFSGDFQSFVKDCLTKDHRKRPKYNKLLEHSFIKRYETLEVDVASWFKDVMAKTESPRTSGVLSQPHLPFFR

[8] = Aqueous solubility of the compound; format: physicochemical
[9] = Volume of distribution at steady state in rat; format: ADME; details: in vivo, read-out: Vdss
[10] = Stability in rat liver microsomes; format: ADME, microsome; details: read-out: Stability
[11] = biological target: T3, Tyrosine-protein kinase Tec (Homo sapiens, UniProt P42680); experiment: Inhibition of full length human His-tagged TEC by KT178 probe based TR-FRET assay
T3 sequence (P42680 whole entry): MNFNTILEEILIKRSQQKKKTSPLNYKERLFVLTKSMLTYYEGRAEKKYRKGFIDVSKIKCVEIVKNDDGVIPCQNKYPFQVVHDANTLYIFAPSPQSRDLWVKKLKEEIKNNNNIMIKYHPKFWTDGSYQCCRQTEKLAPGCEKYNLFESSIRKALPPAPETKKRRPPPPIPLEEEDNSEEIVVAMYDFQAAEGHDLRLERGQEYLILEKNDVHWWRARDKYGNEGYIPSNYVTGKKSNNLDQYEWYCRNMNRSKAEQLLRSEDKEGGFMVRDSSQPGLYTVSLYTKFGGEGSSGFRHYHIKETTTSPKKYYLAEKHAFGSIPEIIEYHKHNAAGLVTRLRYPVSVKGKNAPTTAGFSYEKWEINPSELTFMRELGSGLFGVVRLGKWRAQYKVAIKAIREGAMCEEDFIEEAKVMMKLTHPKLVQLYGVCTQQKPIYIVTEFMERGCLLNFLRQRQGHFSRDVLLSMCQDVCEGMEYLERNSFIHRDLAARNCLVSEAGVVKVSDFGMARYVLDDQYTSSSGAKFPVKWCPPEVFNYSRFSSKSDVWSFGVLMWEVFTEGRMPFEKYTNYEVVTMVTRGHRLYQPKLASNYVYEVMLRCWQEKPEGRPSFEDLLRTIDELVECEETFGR

[12] = biological target: T4, Tyrosine-protein kinase TXK (Homo sapiens, UniProt P42681); experiment: Inhibition of recombinant human N-terminal GST-tagged TXK using GEPLYWSFPAKKK as substrate measured every 60 secs for 1 hr by PK/LDH coupled spectrophotometric assay
T4 sequence (P42681 whole entry): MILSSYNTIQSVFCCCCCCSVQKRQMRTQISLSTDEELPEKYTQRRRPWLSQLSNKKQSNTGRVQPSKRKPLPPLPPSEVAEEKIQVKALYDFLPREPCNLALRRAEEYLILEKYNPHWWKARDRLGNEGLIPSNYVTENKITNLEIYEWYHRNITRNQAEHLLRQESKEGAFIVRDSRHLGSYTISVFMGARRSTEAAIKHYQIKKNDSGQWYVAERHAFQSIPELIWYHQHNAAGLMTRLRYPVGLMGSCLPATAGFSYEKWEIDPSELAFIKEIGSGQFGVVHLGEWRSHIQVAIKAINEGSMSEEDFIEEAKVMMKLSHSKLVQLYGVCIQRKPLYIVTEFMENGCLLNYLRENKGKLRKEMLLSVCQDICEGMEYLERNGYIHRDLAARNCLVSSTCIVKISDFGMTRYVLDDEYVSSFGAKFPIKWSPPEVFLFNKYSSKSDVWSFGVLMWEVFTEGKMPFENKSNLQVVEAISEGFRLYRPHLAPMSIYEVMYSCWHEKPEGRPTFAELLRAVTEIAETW

[13] = Blood clearance in monkey; format: ADME, Macaca mulatta; details: rhesus monkey, whole blood
[14] = Volume of distribution at steady state in mouse; format: ADME, organism-based; details: in vivo, read-out: Vdss
[15] = biological target: Receptor tyrosine-protein kinase erbB-2 (Homo sapiens, UniProt P04626); experiment: Inhibition of human N-terminal His-tagged HER2 expressed in baculovirus expression system in presence of 1 mM ATP
Chain of Receptor tyrosine-protein kinase erbB-2 (P04626 whole entry): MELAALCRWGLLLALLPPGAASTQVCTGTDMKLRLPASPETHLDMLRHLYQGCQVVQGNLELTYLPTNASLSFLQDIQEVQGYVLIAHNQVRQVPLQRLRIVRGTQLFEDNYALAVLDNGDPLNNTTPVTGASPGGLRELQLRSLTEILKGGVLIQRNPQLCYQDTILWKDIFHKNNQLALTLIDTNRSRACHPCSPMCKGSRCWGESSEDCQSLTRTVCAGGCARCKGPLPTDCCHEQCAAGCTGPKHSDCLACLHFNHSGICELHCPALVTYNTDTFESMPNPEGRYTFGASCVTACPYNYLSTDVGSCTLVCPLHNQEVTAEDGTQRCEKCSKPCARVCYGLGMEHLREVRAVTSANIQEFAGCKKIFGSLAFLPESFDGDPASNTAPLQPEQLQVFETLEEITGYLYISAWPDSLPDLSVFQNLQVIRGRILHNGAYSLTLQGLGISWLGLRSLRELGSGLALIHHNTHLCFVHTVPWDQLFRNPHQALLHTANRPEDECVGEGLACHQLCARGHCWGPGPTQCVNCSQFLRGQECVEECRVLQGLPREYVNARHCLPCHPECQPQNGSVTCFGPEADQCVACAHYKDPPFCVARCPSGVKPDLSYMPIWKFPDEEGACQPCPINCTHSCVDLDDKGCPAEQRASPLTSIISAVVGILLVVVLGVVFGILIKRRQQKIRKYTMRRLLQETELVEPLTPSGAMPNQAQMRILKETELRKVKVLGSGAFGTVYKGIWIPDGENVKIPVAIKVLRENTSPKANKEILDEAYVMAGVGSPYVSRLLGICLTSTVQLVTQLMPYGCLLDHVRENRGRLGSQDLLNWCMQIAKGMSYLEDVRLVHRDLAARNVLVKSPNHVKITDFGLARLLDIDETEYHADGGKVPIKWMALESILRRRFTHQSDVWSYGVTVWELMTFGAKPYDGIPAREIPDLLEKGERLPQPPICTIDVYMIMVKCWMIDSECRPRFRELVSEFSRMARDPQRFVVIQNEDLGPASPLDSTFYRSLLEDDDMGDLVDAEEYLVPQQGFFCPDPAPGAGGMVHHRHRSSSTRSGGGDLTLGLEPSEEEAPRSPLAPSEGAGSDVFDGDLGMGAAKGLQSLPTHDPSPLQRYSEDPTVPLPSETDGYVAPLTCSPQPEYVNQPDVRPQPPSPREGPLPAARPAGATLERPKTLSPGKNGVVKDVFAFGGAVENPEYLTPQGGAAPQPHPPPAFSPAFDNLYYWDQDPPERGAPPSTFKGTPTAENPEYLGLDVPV

[16] = Oral bioavailability in dog; format: ADME, organism-based, Canis lupus familiaris; details: in vivo
[17] = Half-life in Sprague-Dawley rat blood at 1 uM by LC-MS/MS analysis; format: ADME, tissue-based
[18] = Unbound intrinsic clearance in human hepatocytes assessed per million cells; format: ADME, cell-based, Hepatocyte
[19] = Half-life in monkey blood; format: ADME, tissue-based, Macaca mulatta; details: rhesus monkey
[20] = Half life in dog plasma; format: ADME, Canis lupus familiaris
[21] = Half life in mouse plasma; format: ADME
[22] = Unbound intrinsic clearance in monkey hepatocytes assessed per million cells; format: ADME, cell-based, Macaca mulatta, Hepatocyte; details: rhesus monkey
[23] = Blood clearance in mouse; format: ADME, organism-based; details: whole blood
[24] = Blood clearance in rat; format: ADME; details: whole blood
[25] = Oral bioavailability in mouse; format: ADME, organism-based; details: in vivo
[26] = Unbound intrinsic clearance in dog hepatocytes assessed per million cells; format: ADME, cell-based, Canis lupus familiaris, Hepatocyte
[27] = Volume of distribution at steady state in monkey; format: ADME, Macaca mulatta; details: rhesus monkey, in vivo; read-out: Vdss
[28] = biological target: T1, Tyrosine-protein kinase Blk; experiment: Inhibition of full length recombinant human His-tagged cytoplasmic BLK expressed in baculovirus expression system by KT236 probe based TR-FRET assay
[29] = biological target: Epidermal growth factor receptor (Homo sapiens, UniProt P00533); experiment: Inhibition of N-terminal GST-tagged human EGFR cytoplasmic domain expressed in baculovirus infected Sf21 insect cells in presence of 1 mM ATP
Chain of Epidermal growth factor receptor (P00533 whole entry, the tested form may be a part): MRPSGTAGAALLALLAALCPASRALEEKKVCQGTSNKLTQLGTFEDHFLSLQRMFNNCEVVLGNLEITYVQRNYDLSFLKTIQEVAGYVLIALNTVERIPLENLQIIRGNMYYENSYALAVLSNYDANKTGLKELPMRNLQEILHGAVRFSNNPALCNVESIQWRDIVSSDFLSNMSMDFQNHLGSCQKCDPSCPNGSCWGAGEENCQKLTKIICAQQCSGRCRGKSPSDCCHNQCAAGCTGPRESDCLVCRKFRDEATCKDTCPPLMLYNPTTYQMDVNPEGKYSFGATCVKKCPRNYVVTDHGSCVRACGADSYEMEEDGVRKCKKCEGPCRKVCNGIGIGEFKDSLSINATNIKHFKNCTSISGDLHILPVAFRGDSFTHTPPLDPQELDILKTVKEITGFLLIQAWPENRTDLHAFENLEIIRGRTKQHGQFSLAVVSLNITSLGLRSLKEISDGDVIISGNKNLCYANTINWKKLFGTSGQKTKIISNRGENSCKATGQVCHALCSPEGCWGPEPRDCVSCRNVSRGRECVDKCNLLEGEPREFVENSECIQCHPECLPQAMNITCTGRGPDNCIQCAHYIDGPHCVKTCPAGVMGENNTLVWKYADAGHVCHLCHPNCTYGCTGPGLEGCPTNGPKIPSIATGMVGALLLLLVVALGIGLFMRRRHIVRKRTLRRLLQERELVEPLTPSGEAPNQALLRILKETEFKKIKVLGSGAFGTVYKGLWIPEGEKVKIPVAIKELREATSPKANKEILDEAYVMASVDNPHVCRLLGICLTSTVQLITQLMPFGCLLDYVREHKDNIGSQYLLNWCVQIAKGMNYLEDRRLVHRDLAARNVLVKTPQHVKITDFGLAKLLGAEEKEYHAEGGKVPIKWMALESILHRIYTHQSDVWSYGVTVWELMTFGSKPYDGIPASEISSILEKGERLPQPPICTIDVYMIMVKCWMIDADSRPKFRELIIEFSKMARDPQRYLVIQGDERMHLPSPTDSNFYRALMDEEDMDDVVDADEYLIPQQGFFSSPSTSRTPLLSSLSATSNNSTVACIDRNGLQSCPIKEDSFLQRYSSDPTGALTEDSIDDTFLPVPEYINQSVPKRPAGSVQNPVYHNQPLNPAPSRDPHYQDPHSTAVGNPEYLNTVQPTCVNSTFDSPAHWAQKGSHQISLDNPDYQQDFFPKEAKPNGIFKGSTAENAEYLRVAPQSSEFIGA

[30] = Volume of distribution at steady state in dog; format: ADME, Canis lupus familiaris; details: in vivo, read-out: Vdss
[31] = Unbound intrinsic clearance in rat hepatocytes assessed per million cells; format: ADME, cell-based, Hepatocyte
[32] = Oral bioavailability in rat; format: ADME, organism-based; details: in vivo
[33] = Unbound intrinsic clearance in mouse hepatocytes assessed per million cells; format: ADME, cell-based, Hepatocyte
[34] = Half life in monkey plasma; format: ADME, Macaca mulatta; details: rhesus monkey
[35] = Permeability in RRCK cells; format: ADME, cell-based, Canis lupus familiaris, MDCKII-LE; details: dog, MDCK; read-out: permeability

`C=CC(=O)N1C[C@H](Nc2ncnc3[nH]ccc23)CC[C@@H]1C` [RITLECITINIB] showed a clearance [1] of 8.6 mL/min/kg, a bioavailability [2] of 56% and a microsomal CLint [3] of 8 µL/min/mg. The half-life [4] was 0.3 h, the IC50 [5] was 19 µM and the half-life [6] was 2.68 h. It also gave an IC50 [7] of over 50 µM, a solubility [8] of over 2000 µg/mL and a Vd [9] of 1.4 L/kg. The microsomal CLint [10] was under 15 µL/min/mg, the Ki [11] was 0.679 µM and the Ki [12] was 0.131 µM. It also gave a clearance [13] of 42 mL/min/kg, a Vd [14] of 0.8 L/kg and an IC50 [15] of over 50 µM. For the same molecule, the bioavailability [16] was 109%, the half-life at 1 µM [17] was 2.68 h and the CL free [18] was 2.8 µL/min. It also gave a half-life [19] of 0.617 h, a half-life [20] of 1.1 h and a half-life [21] of 1.3 h. For the same molecule, the CL free [22] was 7.6 µL/min, the clearance [23] was 48 mL/min/kg and the clearance [24] was 53 mL/min/kg. For the same molecule, the bioavailability [25] was 62%, the CL free [26] was 2.1 µL/min and the Vd [27] was 2.6 L/kg. It also gave a Ki [28] of 32.4 µM, an IC50 [29] of over 50 µM and a Vd [30] of 1.1 L/kg. The CL free [31] was 14 µL/min, the bioavailability [32] was 85% and the CL free [33] was 53 µL/min. For the same molecule, the half-life [34] was 0.7 h and the Papp [35] was 15 ×10⁻⁶ cm/s.
